This is an account of results in paper PMC3025750 (Journal of medicinal chemistry, 2010).

Assay [1] deals with TCR-induced activation of the proximal IL-2 promoter (NFAT/AP-1) in Jurkat TAg T cells. Nature of the assay: NFAT/AP-1 dual luciferase reporter assay. Type of assay: cell-based. Conditions: for NFAT/AP-1 activation in TCR-stimulated sample compared to DMSO control / NFAT/AP-1 signaling in unstimulated sample: 5 μM compound; for NFAT/AP-1 activation in TCR-stimulated sample compared to DMSO control: 45 min, then OKT3 6 hours; for NFAT/AP-1 activation in TCR-stimulated sample compared to DMSO control / NFAT/AP-1 signaling in unstimulated sample / dose-dependence of TCR-induced NFAT/AP-1 activation: Jurkat TAg T cells; for NFAT/AP-1 signaling in unstimulated sample: no TCR stimulation; for dose-dependence of TCR-induced NFAT/AP-1 activation: dose-response 0.1 to 30 μM.

Assay [2] deals with Lck-pY394 and pζ-chain phosphorylation in Jurkat TAg T cells. Nature of the assay: Immunoblotting of Lyp's substrates Lck-pY394 and pζ-chain after TCR stimulation. Type of assay: cell-based. Conditions: 45 min at 37°C, then TCR stimulation, immunoblot.
In a further assay the target is recombinant Lyp (Homo sapiens, UniProt Q9Y2R2). Conditions: ratio of IC50 values.

Molecules are shown by their SMILES. “Also recorded” adds a separate entry of the source.

Chain of recombinant Lyp (Q9Y2R2 2-309): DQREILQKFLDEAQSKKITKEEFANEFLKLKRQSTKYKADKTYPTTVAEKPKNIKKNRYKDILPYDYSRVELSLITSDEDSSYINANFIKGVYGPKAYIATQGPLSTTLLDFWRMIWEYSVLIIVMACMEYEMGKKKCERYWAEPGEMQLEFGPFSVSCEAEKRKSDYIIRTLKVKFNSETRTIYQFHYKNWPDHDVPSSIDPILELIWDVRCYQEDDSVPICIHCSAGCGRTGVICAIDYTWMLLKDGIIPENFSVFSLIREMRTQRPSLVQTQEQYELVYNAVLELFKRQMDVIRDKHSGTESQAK

For the compound `O=C(CCCn1cc(-c2c(-c3ccccc3)oc3cc(O)c(C(=O)O)cc23)nn1)Nc1cccc2ccccc12` [Compound 478, reference compound], in assay [1], the “NFAT/AP-1 activation in TCR-stimulated sample compared to DMSO control” value (from here on “NFAT/AP-1 activation … compared to DMSO control”) is given as “did not show an effect”.

As to `O=C(CCCn1cc(-c2c(-c3ccccc3)oc3cc(O)c(C(=O)O)cc23)nn1)Nc1ccc(Br)c2ccccc12` [Compound 482], the “NFAT/AP-1 signaling in unstimulated sample” value in assay [1] is recorded as “substantially augmented signaling; also recorded: enhanced T cell signaling in a non TCR-mediated manner”.

Take `COC(=O)c1cc2c(-c3cn(CCCC(=O)Nc4ccc(Cl)c5ccccc45)nn3)c(-c3ccccc3)oc2cc1O` [Compound 486, Methyl 3-(1-(4-(4-chloronaphthalen-1-ylamino)-4-oxobutyl)-1H-1,2,3-triazol-4-yl)-6-hydroxy-2-phenylbenzofuran-5-carboxylate]: in assay [1], the “compound concentration at which NFAT/AP-1 activation was augmented” value (from here on “compound concentration”) was “submicromolar”, the “NFAT/AP-1 activation … compared to DMSO control” value is “considerable higher NFAT/AP-1 activation” and the “dose-dependence of TCR-induced NFAT/AP-1 activation” value (“dose-dependence” for short) is given as “dose-dependent effect”. Also, in assay [2], the “concentration at which pTyr levels of Lck-pY394 and pζ-chain were augmented” value (from here on “concentration at which pTyr levels”) is given as 5 μM.

In the case of `O=C(CCn1cc(-c2c(-c3ccccc3)oc3cc(O)c(C(=O)O)cc23)nn1)Nc1cccc2ccccc12` [Compound 495], the “NFAT/AP-1 activation … compared to DMSO control” value in assay [1] is listed as “considerable higher NFAT/AP-1 activation”.

With `O=C(CCCCn1cc(-c2c(-c3ccccc3)oc3cc(O)c(C(=O)O)cc23)nn1)Nc1cccc2ccccc12` [Compound 496], the “NFAT/AP-1 activation … compared to DMSO control” value in assay [1] was “considerable higher NFAT/AP-1 activation”.

For the compound `Cc1ccc(-c2oc3cc(O)c(C(=O)O)cc3c2-c2cn(CCCC(=O)Nc3cccc4ccccc34)nn2)cc1` [Compound 522, 6-hydroxy-3-(1-(4-(naphthalen-1-ylamino)-4-oxobutyl)-1H-1,2,3-triazol-4-yl)-2-p-tolylbenzofuran-5-carboxylic acid], in assay [1], the “compound concentration” value is on record as “submicromolar”, the “NFAT/AP-1 activation … compared to DMSO control” value is given as “considerable higher NFAT/AP-1 activation” and the “dose-dependence” value was “dose-dependent effect”. Further, the “concentration at which pTyr levels” value in assay [2] came out at 10 μM.

For `Cc1ccc(-c2oc3cc(O)c(C(=O)O)cc3c2-c2cn(CCCC(=O)Nc3cccc4cccnc34)nn2)cc1` [Compound 523], the “NFAT/AP-1 activation … compared to DMSO control” value in assay [1] was “considerable higher NFAT/AP-1 activation”.

As to `Cc1ccc(-c2oc3cc(O)c(C(=O)O)cc3c2-c2cn(CCCC(=O)Nc3ccc(Cl)c4ccccc34)nn2)cc1` [Compound 525, 3-(1-(4-(4-chloronaphthalen-1-ylamino)-4-oxobutyl)-1H-1,2,3-triazol-4-yl)-6-hydroxy-2-p-tolylbenzofuran-5-carboxylic acid], in assay [1], the “compound concentration” value is given as “submicromolar”, the “NFAT/AP-1 activation … compared to DMSO control” value is given as “considerable higher NFAT/AP-1 activation” and the “dose-dependence” value is reported as “dose-dependent effect”. In addition, the “concentration at which pTyr levels” value in assay [2] is listed as 30 μM.

On to `Cc1ccc(-c2oc3cc(O)c(C(=O)O)cc3c2-c2cn(CCCC(=O)Nc3ccc(Br)c4ccccc34)nn2)cc1` [Compound 526], for which, in assay [1], the “NFAT/AP-1 activation … compared to DMSO control” value is “modest” and the “NFAT/AP-1 signaling in unstimulated sample” value was “substantially augmented signaling; also recorded: enhanced T cell signaling in a non TCR-mediated manner”. Moreover, the “improvement of Lyp inhibitory activity over the original compound 478” value on recombinant Lyp turned out to be 17 fold.

Take `Cc1ccc(-c2oc3cc(O)c(C(=O)O)cc3c2-c2cn(CCC(=O)Nc3cccc4ccccc34)nn2)cc1` [Compound 530]: the “NFAT/AP-1 activation … compared to DMSO control” value in assay [1] is on record as “considerable higher NFAT/AP-1 activation”.

Take `COc1ccc(-c2oc3cc(O)c(C(=O)O)cc3c2-c2cn(CCCC(=O)Nc3cccc4ccccc34)nn2)cc1` [Compound 584, 6-hydroxy-2-(4-methoxyphenyl)-3-(1-(4-(naphthalen-1-ylamino)-4-oxobutyl)-1H-1,2,3-triazol-4-yl)benzofuran-5-carboxylic acid]: in assay [1], the “compound concentration” value is recorded as “submicromolar”, the “NFAT/AP-1 activation … compared to DMSO control” value is recorded as “considerable higher NFAT/AP-1 activation” and the “dose-dependence” value is given as “dose-dependent effect”. Further, the “concentration at which pTyr levels” value in assay [2] worked out at 3 μM.

On to `COc1ccc2nc(NC(=O)CCCn3cc(-c4c(-c5cccc(C)c5)oc5cc(O)c(C(=O)O)cc45)nn3)sc2c1` [Compound 630, 6-hydroxy-3-(1-(4-(6-methoxybenzo[d]thiazol-2-ylamino)-4-oxobutyl)-1H-1,2,3-triazol-4-yl)-2-m-tolylbenzofuran-5-carboxylic acid], for which, in assay [1], the “compound concentration” value was not below 3 µM, the “NFAT/AP-1 activation … compared to DMSO control” value is “considerable higher NFAT/AP-1 activation” and the “dose-dependence” value is “dose-dependent effect”. In addition, the “concentration at which pTyr levels” value in assay [2] amounted to 30 μM.
